From patent publication US20240239861A1, “GLUCAGON-RECEPTOR SELECTIVE POLYPEPTIDES AND METHODS OF USE THEREOF” (i2O Therapeutics, Inc., priority 2016, published 2024)
pEC50: −log10 of the molar value. Where a SMILES comes first, the peptide text is derived from it. [ ]: non-standard residue; d: D form. Aib = CC(C)(N)C(=O)O

Columns and labels:
[1] = in vivo; settings: male, rat
Description: Peptides were formulated in sterile saline and administered as a 3-hour intravenous infusion to non-fasted male Wistar Han or Sprague-Dawley rats (n=3 per group) via jugular vein cannula at a final dose of 0.3 or 0.1 mg/kg. […] Plasma was prepared by centrifugation and stored at −80° C. until analysis.
Protein Precipitation: All 96-well plates were coated with a blocking agent to mitigate non-specific binding of peptides. Plasma samples (75 uL) were added to a 96-well plate containing 200 uL of 2:1 ethanol:acetonitrile containing 0.1% TFA and mixed well via aspiration. Plates were capped, vortex-mixed and centrifuged. Supernatants (215 uL) were transferred to a clean 96-well plate, evaporated to dryness under nitrogen flow and then reconstituted in 75 μL of 20% acetonitrile in water containing 0.10% formic acid.
Solid-Phase Extraction: Samples were diluted 3-fold with 5% NH4OH (aq) and loaded onto an Oasis MAX microElution plate (Waters Corp, Milford, MA) that had been pre-conditioned with 200 uL each of methanol and 5% NH4OH (aq). The plate was washed with 200 uL 5% NH4OH (aq), followed by 200 uL 20% acetonitrile in water. […] Samples were reconstituted in 80 uL 0.1% formic acid in water.
All calibration standards were prepared in control rat plasma containing K2EDTA and protease inhibitor cocktail. […] Samples were injected onto a 2.1×50 mm reverse phase C18 analytical column, typically a Waters ACQUITY UPLC™ HSS T3, 1.8 μm (Waters Corporation, Milford, MA) or similar. […] Typical flow rates were 600 L/min. The column temperature was held constant at 40 or 45° C. Peptides were quantified my monitoring one or more product ions produced from a multiply charged parent ion.

[2] = molecular target: human GLP-1R (Homo sapiens, UniProt P43220); test: Peptide-receptor mediated cAMP accumulation (LANCE Ultra cAMP) in CHO-K1 cells transfected with human GLP-1R; type: cell-based; settings: hGLP1 pEC50 (cAMP mean (n = 3): 11 point curve starting at 1 nM, Table 3)
Chain of human GLP-1R (P43220 24-463): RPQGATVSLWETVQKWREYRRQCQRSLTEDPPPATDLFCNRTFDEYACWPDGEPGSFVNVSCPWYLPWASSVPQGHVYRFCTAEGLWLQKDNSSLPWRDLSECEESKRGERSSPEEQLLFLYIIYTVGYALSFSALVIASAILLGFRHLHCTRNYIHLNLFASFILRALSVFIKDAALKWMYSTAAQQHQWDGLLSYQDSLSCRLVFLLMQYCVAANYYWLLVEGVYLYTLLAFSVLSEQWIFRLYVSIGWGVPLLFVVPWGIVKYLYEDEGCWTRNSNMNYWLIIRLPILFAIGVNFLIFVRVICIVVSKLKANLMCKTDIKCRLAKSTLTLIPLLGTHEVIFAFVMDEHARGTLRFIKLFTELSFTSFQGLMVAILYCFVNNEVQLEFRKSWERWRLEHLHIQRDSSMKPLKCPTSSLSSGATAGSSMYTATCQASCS

[3] = molecular target: human GCGR (Homo sapiens, UniProt P47871); test: Peptide-receptor mediated cAMP accumulation (LANCE Ultra cAMP) in CHO-K1 cells transfected with human GCGR; type: cell-based; settings: Table 3
Chain of human GCGR (P47871 26-477): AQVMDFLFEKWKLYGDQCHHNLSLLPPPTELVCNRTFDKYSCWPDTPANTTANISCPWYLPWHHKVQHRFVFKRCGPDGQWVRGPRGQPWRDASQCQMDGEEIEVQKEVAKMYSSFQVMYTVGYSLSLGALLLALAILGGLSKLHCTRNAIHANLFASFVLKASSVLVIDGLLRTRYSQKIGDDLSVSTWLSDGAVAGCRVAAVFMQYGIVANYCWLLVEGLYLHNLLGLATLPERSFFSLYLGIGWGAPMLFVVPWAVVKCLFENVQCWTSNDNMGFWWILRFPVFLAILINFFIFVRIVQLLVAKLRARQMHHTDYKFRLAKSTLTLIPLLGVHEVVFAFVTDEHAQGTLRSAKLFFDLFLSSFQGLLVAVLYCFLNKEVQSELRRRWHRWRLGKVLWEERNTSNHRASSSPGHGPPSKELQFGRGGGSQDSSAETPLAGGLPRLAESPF

SMILES	clearance [1] [mL/min/kg]	pEC50 [2]	pEC50 [3]
CC(C)C[C@H](NC(=O)[C@H](Cc1ccc(O)cc1)NC(=O)[C@H](CCCCN)NC(=O)[C@H](CO)NC(=O)[C@H](Cc1ccc(O)cc1)NC(=O)[C@H](CC(=O)O)NC(=O)[C@H](CO)NC(=O)[C@@H](NC(=O)[C@H](Cc1ccccc1)NC(=O)[C@@H](NC(=O)CNC(=O)[C@H](Cc1c[nH]cn1)NC(=O)[C@H](CO)NC(=O)[C@@H](N)Cc1ccc(O)cc1)[C@@H](C)O)[C@@H](C)O)C(=O)N[C@@H](CC(=O)O)C(=O)N[C@@H](CCCCN)C(=O)N[C@@H](C)C(=O)N[C@@H](CCCNC(=N)N)C(=O)N[C@@H](C)C(=O)N[C@@H](CCC(N)=O)C(=O)N[C@@H](CCC(=O)O)C(=O)N[C@@H](Cc1ccccc1)C(=O)N[C@H](C(=O)N[C@@H](CCCCN)C(=O)N[C@@H](Cc1c[nH]c2ccccc12)C(=O)N[C@@H](CC(C)C)C(=O)N[C@@H](CCC(=O)O)C(=O)N[C@@H](CC(=O)O)C(=O)N[C@@H](CCC(=O)O)C(=O)N1CCC[C@H]1C(=O)N[C@@H](CO)C(=O)N[C@@H](CO)C(=O)NCC(=O)N[C@@H](C)C(=O)N1CCC[C@H]1C(=O)N1CCC[C@H]1C(=O)N1CCC[C@H]1C(=O)N[C@@H](CO)C(=O)O)C(C)C [Compound A43] (H-YSHGTFTSDYSKYLDKARAQEFVKWLEDEPSSGAPPPS-OH; N-terminus assumed)	47	< 9.00	11.80
CC(C)C[C@H](NC(=O)[C@H](Cc1ccc(O)cc1)NC(=O)[C@H](CCCCN)NC(=O)[C@H](CO)NC(=O)[C@H](Cc1ccc(O)cc1)NC(=O)[C@H](CC(=O)O)NC(=O)[C@H](CO)NC(=O)[C@@H](NC(=O)[C@H](Cc1ccccc1)NC(=O)[C@@H](NC(=O)CNC(=O)[C@H](Cc1c[nH]cn1)NC(=O)[C@H](CO)NC(=O)[C@@H](N)Cc1ccc(O)cc1)[C@@H](C)O)[C@@H](C)O)C(=O)N[C@@H](CC(=O)O)C(=O)N[C@@H](CCC(N)=O)C(=O)N[C@@H](C)C(=O)N[C@@H](CCCNC(=N)N)C(=O)N[C@@H](C)C(=O)N[C@@H](CCC(N)=O)C(=O)N[C@@H](CCC(=O)O)C(=O)N[C@@H](Cc1ccccc1)C(=O)N[C@H](C(=O)N[C@@H](CCCCN)C(=O)N[C@@H](Cc1c[nH]c2ccccc12)C(=O)N[C@@H](CC(C)C)C(=O)N[C@@H](CCC(=O)O)C(=O)N[C@@H](CC(=O)O)C(=O)N[C@@H](CCC(=O)O)C(=O)N1CCC[C@H]1C(=O)N[C@@H](CO)C(=O)N[C@@H](CO)C(=O)NCC(=O)N[C@@H](C)C(=O)N1CCC[C@H]1C(=O)N1CCC[C@H]1C(=O)N1CCC[C@H]1C(=O)N[C@@H](CO)C(=O)O)C(C)C [Compound A44] (H-YSHGTFTSDYSKYLDQARAQEFVKWLEDEPSSGAPPPS-OH; N-terminus assumed)	23.9	< 9.00	11.90
CC(C)C[C@H](NC(=O)[C@H](Cc1ccc(O)cc1)NC(=O)[C@H](CCCCN)NC(=O)[C@H](CO)NC(=O)[C@H](Cc1ccc(O)cc1)NC(=O)[C@H](CC(=O)O)NC(=O)[C@H](CO)NC(=O)[C@@H](NC(=O)[C@H](Cc1ccccc1)NC(=O)[C@@H](NC(=O)CNC(=O)[C@H](Cc1c[nH]cn1)NC(=O)[C@H](CO)NC(=O)[C@@H](N)Cc1ccc(O)cc1)[C@@H](C)O)[C@@H](C)O)C(=O)N[C@@H](CC(=O)O)C(=O)NC(C)(C)C(=O)N[C@@H](CCCCN)C(=O)N[C@@H](C)C(=O)N[C@@H](C)C(=O)N[C@@H](CCC(N)=O)C(=O)N[C@@H](CCC(=O)O)C(=O)N[C@@H](Cc1ccccc1)C(=O)N[C@H](C(=O)NC(C)(C)C(=O)N[C@@H](Cc1c[nH]c2ccccc12)C(=O)N[C@@H](CC(C)C)C(=O)N[C@@H](CCC(=O)O)C(=O)N[C@@H](CC(=O)O)C(=O)N[C@@H](CCC(=O)O)C(=O)N1CCC[C@H]1C(=O)N[C@@H](CO)C(=O)N[C@@H](CO)C(=O)NCC(=O)N[C@@H](C)C(=O)N1CCC[C@H]1C(=O)N1CCC[C@H]1C(=O)N1CCC[C@H]1C(=O)N[C@@H](CO)C(=O)O)C(C)C [Compound A76] (H-YSHGTFTSDYSKYLD[Aib]KAAQEFV[Aib]WLEDEPSSGAPPPS-OH; N-terminus assumed)	15.1	< 9.00	
CC(C)C[C@H](NC(=O)[C@H](Cc1ccc(O)cc1)NC(=O)[C@H](CCCCN)NC(=O)[C@H](CO)NC(=O)[C@H](Cc1ccc(O)cc1)NC(=O)[C@H](CC(=O)O)NC(=O)[C@H](CO)NC(=O)[C@@H](NC(=O)[C@H](Cc1ccccc1)NC(=O)[C@@H](NC(=O)CNC(=O)[C@H](CCC(N)=O)NC(=O)[C@H](CO)NC(=O)[C@@H](N)Cc1ccc(O)cc1)[C@@H](C)O)[C@@H](C)O)C(=O)N[C@@H](CC(=O)O)C(=O)NC(C)(C)C(=O)N[C@@H](CCCCN)C(=O)N[C@@H](CCCNC(=N)N)C(=O)N[C@@H](C)C(=O)N[C@@H](CCC(N)=O)C(=O)N[C@@H](CCC(=O)O)C(=O)N[C@@H](Cc1ccccc1)C(=O)N[C@H](C(=O)NC(C)(C)C(=O)N[C@@H](Cc1c[nH]c2ccccc12)C(=O)N[C@@H](CC(C)C)C(=O)N[C@@H](CCC(=O)O)C(=O)N[C@@H](CC(=O)O)C(=O)N[C@@H](CCC(=O)O)C(=O)N1CCC[C@H]1C(=O)N[C@@H](CO)C(=O)N[C@@H](CO)C(=O)NCC(=O)N[C@@H](CCCCN)C(=O)N1CCC[C@H]1C(=O)N1CCC[C@H]1C(=O)N1CCC[C@H]1C(=O)N[C@@H](CO)C(=O)O)C(C)C [Compound A86] (H-YSQGTFTSDYSKYLD[Aib]KRAQEFV[Aib]WLEDEPSSGKPPPS-OH; N-terminus assumed)	14.7	< 9.00	
CC(C)C[C@H](NC(=O)[C@H](Cc1ccc(O)cc1)NC(=O)[C@H](CCCCN)NC(=O)[C@H](CO)NC(=O)[C@H](Cc1ccc(O)cc1)NC(=O)[C@H](CC(=O)O)NC(=O)[C@H](CO)NC(=O)[C@@H](NC(=O)[C@H](Cc1ccccc1)NC(=O)[C@@H](NC(=O)CNC(=O)[C@H](CCC(N)=O)NC(=O)[C@H](CO)NC(=O)[C@@H](N)Cc1c[nH]c2ccccc12)[C@@H](C)O)[C@@H](C)O)C(=O)N[C@@H](CC(=O)O)C(=O)NC(C)(C)C(=O)N[C@@H](CCCCN)C(=O)N[C@@H](CCCNC(=N)N)C(=O)N[C@@H](C)C(=O)N[C@@H](CCC(N)=O)C(=O)N[C@@H](CCC(=O)O)C(=O)N[C@@H](Cc1ccccc1)C(=O)N[C@H](C(=O)NC(C)(C)C(=O)N[C@@H](Cc1c[nH]c2ccccc12)C(=O)N[C@@H](CC(C)C)C(=O)N[C@@H](CCC(=O)O)C(=O)N[C@@H](CC(=O)O)C(=O)N[C@@H](CCC(=O)O)C(=O)N1CCC[C@H]1C(=O)N[C@@H](CO)C(=O)N[C@@H](CO)C(=O)NCC(=O)N[C@@H](CCCCN)C(=O)N1CCC[C@H]1C(=O)N1CCC[C@H]1C(=O)N1CCC[C@H]1C(=O)N[C@@H](CO)C(=O)O)C(C)C [Compound A91] (H-WSQGTFTSDYSKYLD[Aib]KRAQEFV[Aib]WLEDEPSSGKPPPS-OH; N-terminus assumed)	13.7	< 9.00	
CC(C)C[C@H](NC(=O)[C@H](Cc1ccc(O)cc1)NC(=O)[C@H](CCCCN)NC(=O)[C@H](CO)NC(=O)[C@H](Cc1ccc(O)cc1)NC(=O)[C@H](CC(=O)O)NC(=O)[C@H](CO)NC(=O)[C@@H](NC(=O)[C@H](Cc1ccccc1)NC(=O)[C@@H](NC(=O)CNC(=O)[C@H](CCC(N)=O)NC(=O)[C@H](CO)NC(=O)[C@@H](N)Cc1ccc(O)cc1)[C@@H](C)O)[C@@H](C)O)C(=O)N[C@@H](CC(=O)O)C(=O)NC(C)(C)C(=O)N[C@@H](CCCCN)C(=O)N[C@@H](CCCNC(=N)N)C(=O)N[C@@H](C)C(=O)N[C@@H](CCC(N)=O)C(=O)N[C@@H](CCC(=O)O)C(=O)N[C@@H](Cc1ccccc1)C(=O)N[C@H](C(=O)NC(C)(C)C(=O)N[C@@H](Cc1c[nH]c2ccccc12)C(=O)N[C@@H](CC(C)C)C(=O)N[C@@H](CCC(=O)O)C(=O)N[C@@H](CC(=O)O)C(=O)N[C@@H](CCC(=O)O)C(=O)N1CCC[C@H]1C(=O)N[C@@H](CO)C(=O)N[C@@H](CO)C(=O)NCC(=O)N[C@@H](C)C(=O)N1CCC[C@H]1C(=O)N1CCC[C@H]1C(=O)N1CCC[C@H]1C(=O)N[C@@H](CO)C(=O)O)C(C)C [Compound A94] (H-YSQGTFTSDYSKYLD[Aib]KRAQEFV[Aib]WLEDEPSSGAPPPS-OH; N-terminus assumed)	16.5	< 9.00	
CC(C)C[C@H](NC(=O)[C@H](Cc1ccc(O)cc1)NC(=O)[C@H](CCCCN)NC(=O)[C@H](CO)NC(=O)[C@H](Cc1ccc(O)cc1)NC(=O)[C@H](CC(=O)O)NC(=O)[C@H](CO)NC(=O)[C@@H](NC(=O)[C@H](Cc1ccccc1)NC(=O)[C@@H](NC(=O)CNC(=O)[C@H](CCC(N)=O)NC(=O)[C@H](CO)NC(=O)[C@@H](N)Cc1ccc(O)cc1)[C@@H](C)O)[C@@H](C)O)C(=O)N[C@@H](CC(=O)O)C(=O)NC(C)(C)C(=O)N[C@@H](CCCCN)C(=O)N[C@@H](C)C(=O)N[C@@H](C)C(=O)N[C@@H](CCC(N)=O)C(=O)N[C@@H](CCC(=O)O)C(=O)N[C@@H](Cc1ccccc1)C(=O)N[C@H](C(=O)NC(C)(C)C(=O)N[C@@H](Cc1c[nH]c2ccccc12)C(=O)N[C@@H](CC(C)C)C(=O)N[C@@H](CCC(=O)O)C(=O)N[C@@H](CC(=O)O)C(=O)N[C@@H](CCC(=O)O)C(=O)N1CCC[C@H]1C(=O)N[C@@H](CO)C(=O)N[C@@H](CO)C(=O)NCC(=O)N[C@@H](C)C(=O)N1CCC[C@H]1C(=O)N1CCC[C@H]1C(=O)N1CCC[C@H]1C(=O)N[C@@H](CO)C(=O)O)C(C)C [Compound A95] (H-YSQGTFTSDYSKYLD[Aib]KAAQEFV[Aib]WLEDEPSSGAPPPS-OH; N-terminus assumed)	15.4	< 9.00	
